From patent US8309584B2, “Sulfur containing pyrazole-heterocycle derivatives as cannabinoid CB1 receptor antagonists” (Green Cross Corporation, priority 2008, dated 2012)
Like-named read-outs stand apart in the source and are kept apart here.

Molecular target: T1, rat CB-1 receptor (Rattus norvegicus, UniProt P20272)
T1 construct: The tissue obtained from the brain of SD rats was homogenized; from tissue; host or cells: SD rat brain membrane homogenate
Assay: rat cannabinoid-1 receptor (CB1R) binding affinity assay
Protocol: The tissue obtained from the brain of SD rats was homogenized with a Dounce homogenate system in TME(50 mM Tris, 3 mM MgCl2 and 1 mM EDTA, pH 7.4) at 4° C., and the homogenate was centrifuged at 48,000 g for 30 min. at 4° C. The pellet was resuspended in 5 ml of TME and the suspension was divided into aliquots and stored at −70° C. until its use in the following assay.
The tissue concentrations were determined by Bradford protein analysis, and 148 μl of brain tissue of the required concentration was added to the plate. The plate was covered and placed in a 30° C. incubator for 60 min, and then transformed on GF/B filtermat pretreated in polyethylenimine (PEI) using a cell harvester. Each filter was washed five times and dried at 60° C. for 1 hr. Then, the degree of radioactivity retained by the filter was measured using Wallac Microbeta™ (PerkinElmer Life Sciences, Inc., Massachusetts, U.S.A.) and the activity of the compound for inhibiting CB1 receptor was determined therefrom.

[1] = [3H]CP-55940 radioligand, SD rat brain tissue homogenate, 30° C., 60 min, read-out: IC50

T1 sequence (P20272 whole entry): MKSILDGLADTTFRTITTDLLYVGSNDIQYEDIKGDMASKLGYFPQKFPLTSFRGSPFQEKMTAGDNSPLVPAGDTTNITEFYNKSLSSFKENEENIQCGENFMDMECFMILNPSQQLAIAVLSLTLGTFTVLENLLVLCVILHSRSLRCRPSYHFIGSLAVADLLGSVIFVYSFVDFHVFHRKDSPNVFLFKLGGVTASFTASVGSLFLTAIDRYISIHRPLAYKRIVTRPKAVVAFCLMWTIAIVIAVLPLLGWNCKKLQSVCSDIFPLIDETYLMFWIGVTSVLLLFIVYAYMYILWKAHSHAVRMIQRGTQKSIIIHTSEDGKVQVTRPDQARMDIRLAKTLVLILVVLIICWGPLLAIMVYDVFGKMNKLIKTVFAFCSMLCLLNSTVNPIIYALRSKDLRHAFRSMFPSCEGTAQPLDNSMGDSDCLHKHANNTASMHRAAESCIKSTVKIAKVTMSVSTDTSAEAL

Row | IC50 [1] | Structure (SMILES) | IC50
1 | 11.8 nM | C[S+]([O-])c1c(-c2nnc(C3(c4ccc(Cl)cc4)CC3)s2)nn(-c2ccc(Cl)cc2Cl)c1-c1ccc(Cl)cc1 (stereo not shown) [Example 63, 2-(5-(4-chlorophenyl)-1-(2,4-dichlorophenyl)-4-(methylsulfinyl)-1H-pyrazol-3-yl)-5-(1-(4-chlorophenyl)cyclopropyl)-1,3,4-thiadiazole] | 
2 | 3.4 nM | C[S+]([O-])c1c(-c2nnc(C3(C(F)(F)F)CCC3)s2)nn(-c2ccccc2Cl)c1-c1ccc(Cl)cc1 (stereo not shown) [Example 66, 2-(1-(2-chlorophenyl)-5-(4-chlorophenyl)-4-(methylsulfinyl)-1H-pyrazol-3-yl)-5-(1-(trifluoromethyl)cyclobutyl)-1,3,4-thiadiazole] | 
3 | 7.97 nM | C[S+]([O-])c1c(-c2nnc(C(C)(C)C)s2)nn(-c2ccccc2Cl)c1-c1ccc(Br)cc1 (stereo not shown) [Example 72, 2-(5-(4-bromophenyl)-1-(2-chlorophenyl)-4-(methylsulfinyl)-1H-pyrazol-3-yl)-5-tert-butyl-1,3,4-thiadiazole] | 
4 | 6.08 nM | C[S+]([O-])c1c(-c2nnc(C3(C(F)(F)F)CC3)s2)nn(-c2ccccc2Cl)c1-c1ccc(Br)cc1 (stereo not shown) [Example 73, 2-(5-(4-bromophenyl)-1-(2-chlorophenyl)-4-(methylsulfinyl)-1H-pyrazol-3-yl)-5-(1-(trifluoromethyl)cyclopropyl)-1,3,4-thiadiazole] | 
5 | 2.32 nM | C[S+]([O-])c1c(-c2nnc(C3(C(F)(F)F)CCC3)s2)nn(-c2ccccc2Cl)c1-c1ccc(Br)cc1 (stereo not shown) [Example 74, 2-(5-(4-bromophenyl)-1-(2-chlorophenyl)-4-(methylsulfinyl)-1H-pyrazol-3-yl)-5-(1-(trifluoromethyl)cyclobutyl)-1,3,4-thiadiazole] | 
6 | 15.2 nM | CC(C)(C)c1nnc(-c2nn(-c3ccc(Cl)cc3Cl)c(-c3ccc(Cl)cc3)c2S(C)(=O)=O)o1 [Example 80, 2-tert-butyl-5-(5-(4-chlorophenyl)-1-(2,4-dichlorophenyl)-4-(methylsulfonyl)-1H-pyrazol-3-yl)-1,3,4-oxadiazole] | 
7 | 6.31 nM | CS(=O)(=O)c1c(-c2nnc(C3(C(F)(F)F)CC3)o2)nn(-c2ccc(Cl)cc2Cl)c1-c1ccc(Cl)cc1 [Example 81, 2-(5-(4-chlorophenyl)-1-(2,4-dichlorophenyl)-4-(methylsulfonyl)-1H-pyrazol-3-yl)-5-(1-(trifluoromethyl)cyclopropyl)-1,3,4-oxadiazole] | 
8 |  | CS(=O)(=O)c1c(-c2nnc(C3(C(F)(F)F)CCC3)o2)nn(-c2ccc(Cl)cc2Cl)c1-c1ccc(Cl)cc1 [Example 82, 2-(5-(4-chlorophenyl)-1-(2,4-dichlorophenyl)-4-(methylsulfonyl)-1H-pyrazol-3-yl)-5-(1-(trifluoromethyl)cyclobutyl)-1,3,4-oxadiazole] | 6.79 nM
9 | 22 nM | CS(=O)(=O)c1c(-c2nnc(C3(c4ccc(Cl)cc4)CC3)o2)nn(-c2ccc(Cl)cc2Cl)c1-c1ccc(Cl)cc1 [Example 83, 2-(5-(4-chlorophenyl)-1-(2,4-dichlorophenyl)-4-(methylsulfonyl)-1H-pyrazol-3-yl)-5-(1-(4-chlorophenyl)cyclopropyl)-1,3,4-oxadiazole] | 
10 | 14.2 nM | CC(C)(C)c1nnc(-c2nn(-c3ccc(Cl)cc3Cl)c(-c3ccc(Br)cc3)c2S(C)(=O)=O)o1 [Example 88, 2-(5-(4-bromophenyl)-1-(2,4-dichlorophenyl)-4-(methylsulfonyl)-1H-pyrazol-3-yl)-5-tert-butyl-1,3,4-oxadiazole] | 
11 | 7.34 nM | CS(=O)(=O)c1c(-c2nnc(C3(C(F)(F)F)CCC3)o2)nn(-c2ccc(Cl)cc2Cl)c1-c1ccc(Br)cc1 [Example 90, 2-(5-(4-bromophenyl)-1-(2,4-dichlorophenyl)-4-(methylsulfonyl)-1H-pyrazol-3-yl)-5-(1-(trifluoromethyl)cyclobutyl)-1,3,4-oxadiazole] | 
12 | 8.15 nM | CC(C)(C)c1nnc(-c2nn(-c3ccccc3Cl)c(-c3ccc(Br)cc3)c2S(C)(=O)=O)o1 [Example 92, 2-(5-(4-bromophenyl)-1-(2-chlorophenyl)-4-(methylsulfonyl)-1H-pyrazol-3-yl)-5-tert-butyl-1,3,4-oxadiazole] | 
13 | 5.21 nM | CS(=O)(=O)c1c(-c2nnc(C3(C(F)(F)F)CCC3)o2)nn(-c2ccccc2Cl)c1-c1ccc(Br)cc1 [Example 94, 2-(5-(4-bromophenyl)-1-(2-chlorophenyl)-4-(methylsulfonyl)-1H-pyrazol-3-yl)-5-(1-(trifluoromethyl)cyclobutyl)-1,3,4-oxadiazole] | 
14 | 5.84 nM | CC(C)(C)c1nnc(-c2nn(-c3ccc(Cl)cc3Cl)c(-c3ccc(Cl)cc3)c2S(C)(=O)=O)s1 [Example 100, 2-tert-butyl-5-(5-(4-chlorophenyl)-1-(2,4-dichlorophenyl)-4-(methylsulfonyl)-1H-pyrazol-3-yl)-1,3,4-thiadiazole] | 
15 | 22 nM | CS(=O)(=O)c1c(-c2nnc(C3(C(F)(F)F)CC3)s2)nn(-c2ccc(Cl)cc2Cl)c1-c1ccc(Cl)cc1 [Example 101, 2-(5-(4-chlorophenyl)-1-(2,4-dichlorophenyl)-4-(methylsulfonyl)-1H-pyrazol-3-yl)-5-(1-(trifluoromethyl)cyclopropyl)-1,3,4-thiadiazole] | 
16 | 3.74 nM | CS(=O)(=O)c1c(-c2nnc(C3(C(F)(F)F)CCC3)s2)nn(-c2ccc(Cl)cc2Cl)c1-c1ccc(Cl)cc1 [Example 102, 2-(5-(4-chlorophenyl)-1-(2,4-dichlorophenyl)-4-(methylsulfonyl)-1H-pyrazol-3-yl)-5-(1-(trifluoromethyl)cyclobutyl)-1,3,4-thiadiazole] | 
17 | 4.34 nM | CS(=O)(=O)c1c(-c2nnc(C3(c4ccc(Cl)cc4)CC3)s2)nn(-c2ccc(Cl)cc2Cl)c1-c1ccc(Cl)cc1 [Example 103, 2-(5-(4-chlorophenyl)-1-(2,4-dichlorophenyl)-4-(methylsulfonyl)-1H-pyrazol-3-yl)-5-(1-(4-chlorophenyl)cyclopropyl)-1,3,4-thiadiazole] | 
18 | 7.18 nM | CC(C)(C)c1nnc(-c2nn(-c3ccccc3Cl)c(-c3ccc(Cl)cc3)c2S(C)(=O)=O)s1 [Example 104, 2-tert-butyl-5-(1-(2-chlorophenyl)-5-(4-chlorophenyl)-4-(methylsulfonyl)-1H-pyrazol-3-yl)-1,3,4-thiadiazole] | 
19 | 0.87 nM | CS(=O)(=O)c1c(-c2nnc(C3(C(F)(F)F)CCC3)s2)nn(-c2ccccc2Cl)c1-c1ccc(Cl)cc1 [Example 106, 2-(1-(2-chlorophenyl)-5-(4-chlorophenyl)-4-(methylsulfonyl)-1H-pyrazol-3-yl)-5-(1-(trifluoromethyl)cyclobutyl)-1,3,4-thiadiazole] | 
20 | 3.64 nM | CS(=O)(=O)c1c(-c2nnc(C3(C(F)(F)F)CCC3)s2)nn(-c2ccc(Cl)cc2Cl)c1-c1ccc(Br)cc1 [Example 110, 2-(5-(4-bromophenyl)-1-(2,4-dichlorophenyl)-4-(methylsulfonyl)-1H-pyrazol-3-yl)-5-(1-(trifluoromethyl)cyclobutyl)-1,3,4-thiadiazole] | 
21 | 3.01 nM | CC(C)(C)c1nnc(-c2nn(-c3ccccc3Cl)c(-c3ccc(Br)cc3)c2S(C)(=O)=O)s1 [Example 112, 2-(5-(4-bromophenyl)-1-(2-chlorophenyl)-4-(methylsulfonyl)-1H-pyrazol-3-yl)-5-tert-butyl-1,3,4-thiadiazole] | 
22 | 2.51 nM | CS(=O)(=O)c1c(-c2nnc(C3(C(F)(F)F)CC3)s2)nn(-c2ccccc2Cl)c1-c1ccc(Br)cc1 [Example 113, 2-(5-(4-bromophenyl)-1-(2-chlorophenyl)-4-(methylsulfonyl)-1H-pyrazol-3-yl)-5-(1-(trifluoromethyl)cyclopropyl)-1,3,4-thiadiazole] | 
23 | 1.08 nM | CS(=O)(=O)c1c(-c2nnc(C3(C(F)(F)F)CCC3)s2)nn(-c2ccccc2Cl)c1-c1ccc(Br)cc1 [Example 114, 2-(5-(4-bromophenyl)-1-(2-chlorophenyl)-4-(methylsulfonyl)-1H-pyrazol-3-yl)-5-(1-(trifluoromethyl)cyclobutyl)-1,3,4-thiadiazole] | 
24 | 1.4 nM | CS(=O)(=O)c1c(-c2nnc(C3(c4ccc(Cl)cc4)CC3)s2)nn(-c2ccccc2Cl)c1-c1ccc(Br)cc1 [Example 115, 2-(5-(4-bromophenyl)-1-(2-chlorophenyl)-4-(methylsulfonyl)-1H-pyrazol-3-yl)-5-(1-(4-chlorophenyl)cyclopropyl)-1,3,4-thiadiazole] | 
25 | 2.06 nM | CCS(=O)(=O)c1c(-c2nnc(C3(c4ccc(Cl)cc4)CC3)s2)nn(-c2ccc(Cl)cc2Cl)c1-c1ccc(Cl)cc1 [Example 119, 2-(5-(4-chlorophenyl)-1-(2,4-dichlorophenyl)-4-(ethylsulfonyl)-1H-pyrazol-3-yl)-5-(1-(4-chlorophenyl)cyclopropyl)-1,3,4-thiadiazole] | 
